Earlier results as cited in patent publication EP2934488B1, “A PHARMACEUTICAL COMPOSITION CONTAINING CANDESARTAN CILEXETIL AND AMLODIPINE” (Adamed Pharma S.A., priority 2012, dated 2014).

Key:
[1] = not given; remark: listed apart in the source

| SMILES | solubility in water | absolute bioavailability ([1]; in vivo) | candesartan physiologically available ([1]; candesartan included in commercial formulations, estimated) |
| --- | --- | --- | --- |
| CCOC(=O)C1=C(COCCN)NC(C)=C(C(=O)OC)C1c1ccccc1Cl (racemic) [Amlodipine benzenesulfonate, 3-ethyl 5-methyl (4RS)-2-[(2-amino-ethoxy)-methyl]-6-methyl-1,4-dihydropyridine-3,5-dicarboxylate] | slightly soluble in water | 64-90% | – |
| CCOc1nc2cccc(C(=O)O)c2n1Cc1ccc(-c2ccccc2-c2nnn[nH]2)cc1 [candesartan] | – | – | 15-40% |
